Source: publication PMC12136037, “Type II kinase inhibitors that target Parkinson’s disease–associated LRRK2” (Science Advances, 2025)
Values joined by “and” are separate entries in the source; they are usually repeats but may differ in a detail not shown here. Identical values can stand only once.

Legend:
LRRK2^KW = target: T1, LRRK2^KW (Homo sapiens, UniProt Q5S007); experiment: DSF thermal stabilization of LRRK2^KW; assay type: binding; conditions: DSF, LRRK2^KW, 10 μM inhibitor
T1 construct: LRRK2 R1847 to E2527; His6-Z-tag (TEV cleavable) (N, cleaved yes); host or cells: Sf9 insect cells (baculovirus)
T1 sequence (Q5S007 1847-2527): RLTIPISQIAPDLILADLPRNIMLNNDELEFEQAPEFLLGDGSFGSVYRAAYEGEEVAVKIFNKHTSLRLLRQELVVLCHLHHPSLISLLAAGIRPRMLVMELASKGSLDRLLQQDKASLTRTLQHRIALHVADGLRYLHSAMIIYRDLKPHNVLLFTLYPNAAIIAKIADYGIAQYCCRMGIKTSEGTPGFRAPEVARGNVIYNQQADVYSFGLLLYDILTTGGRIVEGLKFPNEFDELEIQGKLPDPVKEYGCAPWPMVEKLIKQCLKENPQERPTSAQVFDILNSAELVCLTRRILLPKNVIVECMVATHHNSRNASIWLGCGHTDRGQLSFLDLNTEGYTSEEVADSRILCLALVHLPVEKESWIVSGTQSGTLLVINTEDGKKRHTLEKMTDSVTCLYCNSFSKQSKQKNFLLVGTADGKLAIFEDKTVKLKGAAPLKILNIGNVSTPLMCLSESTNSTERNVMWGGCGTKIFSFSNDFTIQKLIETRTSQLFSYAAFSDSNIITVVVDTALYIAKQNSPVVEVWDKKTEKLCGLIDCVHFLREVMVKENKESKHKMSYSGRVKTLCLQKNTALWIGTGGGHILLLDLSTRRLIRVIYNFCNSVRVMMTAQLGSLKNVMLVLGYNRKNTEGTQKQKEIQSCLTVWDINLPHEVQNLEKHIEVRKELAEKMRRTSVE
Experimental: To characterize binding between small molecules and LRRK2^KW, induced thermal stabilization was measured by DSF according to previously established protocols ([47]). In brief, LRRK2^KW was diluted to 4 μM in 20 mM Hepes (pH 7.4), 150 mM NaCl, 0.5 mM TCEP, 0.5% glycerol, 20 μM GDP, and 2.5 mM MgCl2, and SYPRO Orange was added (1:1000, MilliporeSigma). Inhibitor (10 μM) to be tested was added to a final sample volume of 20 μl per well of a 96-well plate (white, Starlab). […] The fluorescence was plotted against the temperature, and the melting point (Tm) was determined as the minimum of the first derivative relative to the control.

LRRK2^RCKW = target: T2, LRRK2^RCKW (Homo sapiens, UniProt Q5S007); experiment: Biochemical LRRK2 activity assay (PhosphoSense, AssayQuant SOX peptide AQT0615); conditions: for IC50: LRRK2^RCKW kinase activity, in vitro; for normalized response (LRRK2 activity): normalized to 0% (no kinase) and 100% (no inhibitor) control, two singlicate columns per compound
T2 construct: LRRK2 R1327 to E2527; His6-Z-tag (TEV cleavable) (N, cleaved yes); host or cells: Sf9 insect cells (baculovirus)
T2 sequence (Q5S007 1327-2527): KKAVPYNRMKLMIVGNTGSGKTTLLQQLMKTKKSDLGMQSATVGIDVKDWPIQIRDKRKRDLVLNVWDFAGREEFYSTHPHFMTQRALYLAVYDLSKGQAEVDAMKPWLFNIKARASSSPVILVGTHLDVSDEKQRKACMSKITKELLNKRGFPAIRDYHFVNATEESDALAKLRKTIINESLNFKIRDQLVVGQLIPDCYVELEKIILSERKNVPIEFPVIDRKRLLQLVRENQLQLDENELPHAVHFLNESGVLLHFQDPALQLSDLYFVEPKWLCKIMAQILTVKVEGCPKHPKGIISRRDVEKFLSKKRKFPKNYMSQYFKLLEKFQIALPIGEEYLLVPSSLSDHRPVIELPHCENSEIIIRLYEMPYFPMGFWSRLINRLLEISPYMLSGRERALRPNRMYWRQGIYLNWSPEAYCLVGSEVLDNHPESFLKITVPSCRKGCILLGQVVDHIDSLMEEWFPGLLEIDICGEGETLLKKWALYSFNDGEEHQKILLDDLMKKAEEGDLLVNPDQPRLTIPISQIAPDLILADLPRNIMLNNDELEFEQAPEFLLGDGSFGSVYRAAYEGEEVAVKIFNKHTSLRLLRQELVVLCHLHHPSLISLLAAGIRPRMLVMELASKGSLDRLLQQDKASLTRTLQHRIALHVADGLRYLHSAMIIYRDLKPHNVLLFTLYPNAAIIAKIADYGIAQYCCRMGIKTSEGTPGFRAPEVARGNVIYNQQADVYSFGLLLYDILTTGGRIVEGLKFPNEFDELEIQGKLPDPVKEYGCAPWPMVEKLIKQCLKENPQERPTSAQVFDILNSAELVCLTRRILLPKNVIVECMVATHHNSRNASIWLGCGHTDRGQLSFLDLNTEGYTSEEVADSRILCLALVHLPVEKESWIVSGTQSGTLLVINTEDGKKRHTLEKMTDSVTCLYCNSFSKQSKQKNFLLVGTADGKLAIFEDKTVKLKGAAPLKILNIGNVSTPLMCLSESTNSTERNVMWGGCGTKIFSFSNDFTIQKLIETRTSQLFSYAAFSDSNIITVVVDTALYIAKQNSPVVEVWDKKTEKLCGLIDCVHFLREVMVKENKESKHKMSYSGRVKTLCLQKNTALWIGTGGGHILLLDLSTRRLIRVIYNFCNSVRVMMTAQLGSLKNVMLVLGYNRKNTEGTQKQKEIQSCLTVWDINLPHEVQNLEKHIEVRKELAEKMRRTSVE
Experimental: Two wells per compound were used as 0% (without protein and compound) and 100% (without compound) control. […] The 0% control wells were filled with 10 μl of pure reaction buffer. With the ECHO, 5 nl of 100 mM ATP was pipetted into each well, the plates were centrifuged at 1500g for 2 min, and the reaction was incubated at room temperature for 4 hours. The fluorescence of the SOX-peptide after 360-nm excitation was measured at 487-nm emission with a PHERAstar plate reader (BMG Labtech). The IC50 values were calculated from a nonlinear regression of the log[inhibitor] versus the normalized response with GraphPad Prism 8 (www.graphpad.com/, RRID:SCR_002798).

Row | Structure (SMILES) | ∆Tm (K) (LRRK2^KW) | IC50 (LRRK2^RCKW) [nM] | normalized response (LRRK2 activity) (LRRK2^RCKW; log[inhibitor(mol)] -4.82391) | normalized response (LRRK2 activity) (LRRK2^RCKW; log[inhibitor(mol)] -5.12494) | normalized response (LRRK2 activity) (LRRK2^RCKW; log[inhibitor(mol)] -5.60206) | normalized response (LRRK2 activity) (LRRK2^RCKW; log[inhibitor(mol)] -6.30103) | normalized response (LRRK2 activity) (LRRK2^RCKW; log[inhibitor(mol)] -6.90309) | normalized response (LRRK2 activity) (LRRK2^RCKW; log[inhibitor(mol)] -7.30103) | normalized response (LRRK2 activity) (LRRK2^RCKW; log[inhibitor(mol)] -7.60206) | normalized response (LRRK2 activity) (LRRK2^RCKW; log[inhibitor(mol)] -8.09691) | normalized response (LRRK2 activity) (LRRK2^RCKW; log[inhibitor(mol)] -8.61979) | normalized response (LRRK2 activity) (LRRK2^RCKW; log[inhibitor(mol)] -9.09691) | normalized response (LRRK2 activity) (LRRK2^RCKW; log[inhibitor(mol)] -9.39794)
1 | O=C(Nc1ccc(F)cc1)C1(C(=O)Nc2cccc(-c3c[nH]c4ncnc(N5CCOCC5)c34)c2)CCCC1 [Compound 3] | 6.0 | 694 ± 1 | -13.5275% and -8.323% | -11.1035% and -8.9537% | 14.4144% and 11.8039% | 58.5784% and 59.582% | 93.4358% and 94.7027% | 100.456% and 104.273% | 103.702% and 110.256% | 103.006% and 100.445% | 97.1047% and 100.867% | 96.2602% and 102.309% | 100.406% and 102.43%
2 | Cc1ccc(NC(=O)C2(C(=O)Nc3ccc(F)cc3)CC2)cc1-c1c[nH]c2ncnc(N3CCOCC3)c12 [Compound 5] | 1.8 | 9580 ± 565 |  | 55.8562% and 55.0924% | 86.5066% and 85.5833% |  | 96.7944% and 101.803% | 96.688% and 103.084% | 102.717% and 103.476% | 97.9836% and 98.7571% | 100.995% and 103.804% | 100.705% and 102.156% | 104.655% and 105.003%
3 | Cc1ccc(-c2c[nH]c3ncnc(N4CCOCC4)c23)cc1NC(=O)C1(C(=O)Nc2ccc(F)cc2)CC1 [Compound 7] | 7.8 | 10500 | 48.7254% and 32.1819% | 55.2664% and 57.3114% | 81.8607% and 85.9555% | 94.4496% and 98.762% | 100.265% and 101.228% | 105.467% and 108.576% | 105.158% and 64.9692% | 97.331% and 101.237% | 106.173% and 99.8401% | 141.905% and 102.383% | 109.403% and 105.477%
4 | O=C(c1cccc(NC(=O)C2(C(=O)Nc3ccc(F)cc3)CC2)c1)c1c[nH]c2ncnc(N3CCOCC3)c12 [Compound 8] | 7.0 | 912 ± 141 | 4.225% and -5.581% | 6.8846% and 7.148% | 31.5798% and 32.6109% | 61.7209% and 66.4318% | 86.2516% and 93.0519% | 93.3097% and 89.5476% | 86.8493% and 91.0776% | 91.1928% and 88.5988% | 102.068% and 96.0518% | 105.369% and 96.9676% | 104.196% and 102.019%
5 | Cn1cc(NC(=O)C2(C(=O)Nc3cccc(-c4c[nH]c5ncnc(N6CCOCC6)c45)c3)CC2)cn1 [Compound 9] | 4.0 | 2110 ± 1190 |  |  | 49.186% and 49.8222% | 82.8654% and 52.2345% | 104.293% and 98.1919% | 105.91% and 76.5961% | 104.315% and 59.7541% | 97.675% and 89.444% | 99.5438% and 104.868% | 109.546% and 62.2548% | 105.46% and 118.944%
6 | CN1CCc2cc(NC(=O)C3(C(=O)Nc4cccc(-c5c[nH]c6ncnc(N7CCOCC7)c56)c4)CC3)ccc2C1 [Compound 10] | 4.3 | 3180 ± 134 |  | 28.5996% and 28.8703% | 54.9087% and 59.3757% | 85.68% and 83.1467% | 102.663% and 58.1284% | 103.229% and 99.9077% | 100.894% and 96.1562% | 96.775% and 100.111% | 99.9803% and 105.134% | 138.579% and 106.168% | 136.224% and 108.416%
7 | COc1cc(S(C)(=O)=O)ccc1Nc1nc(N(C)C)c2c(-c3cccc(NC(=O)Nc4cc(C(C)(C)C)nn4-c4ccc(C)cc4)c3)c[nH]c2n1 [Compound 33] | 1.0 |  |  |  |  |  |  | 124.559% and 124.399% | 116.776% and 118.915% | 103.198% and 104.843% | 103.872% and 98.2729% | 102.243% and 101.201% | 101.448% and 104.602%
